Measured values from patent publication US12168003B2, “Selective inhibition of T follicular helper cells for treatment of autoimmune disorders” (priority 2019, dated 2024).

System: eIF4E
Assay: Silencing of eIF4E in OT2 T cells by lentivirus shRNA, adoptive transfer and OVA/Alum
Assay type: in vivo, mouse
Protocol: HEK 293T cells were transfected with pTRIPZ plasmid expressing NS shRNA ([…] (SEQ ID NO: 5)) or eIF4E shRNA ([…] (SEQ ID NO: 6)) along with psPAX2 and pMD2.G in Lipofectamine™ 2000 and Opti-MEM®. Supernatant was collected 48 hours later and centrifuged at 3000×g for 15 minutes at room temperature. Cell debris pellet was discarded and supernatant was incubated with PEG-it™ (System Biosciences) at 4° C. for 24 to 48 hours and then centrifuged for 1500×g for 30 minutes at 4° C. Supernatant was discarded and viral pellet was resuspended in cold PBS and frozen at −80° C. until use.
CD4^+ T cells were isolated (EasySep™ CD4^+ T cell isolation; StemCell) from OT2 mice (>95% Vβ5.1/5.2) using negative selection. OT2 T cells were activated in mouse T cell media (RPMI containing 10% FBS, 55 μM 2-ME, 25 mM HEPES, 100 uM Sodium pyruvate, 2 mM Glutamax, non-essential amino acids, 100 U/mL penicillin, and 100 μg/mL streptomycin) and soluble 1 μg/mL anti-CD28 with 50 U/mL IL-2 on plates coated with 10 μg/mL anti-CD3 for 3 days. Following activation, cells were spin-transfected at 3×10^6 cells in 1 mL in 6-well plates with lentivirus and 4 μg/mL dextran (Sigma D9885) at 2,000×g for 60 minutes at 30° C. with no acceleration or break (Kurachi et al., “Optimized Retroviral Transduction of Mouse T Cells for in Vivo Assessment of Gene Function,” Nat. Protoc. 12(9):1980-1998 (2017), which is hereby incorporated by reference in its entirety). Following spinoculation, cells were centrifuged and supernatant was decanted and replaced with fresh media. The next day (day 5) 2 μg/mL puromycin (Gibco) and PMA/ionomycin (BioLegend®) are added to the T cells and incubated for 3 days. On day 8, media was replaced and cells were incubated with PMA/ionomycin again for another 3 days. On day 10, it was confirmed that control cells not transfected with virus were >98% dead and 1.5×10^6 OT2 NS or OT2 eIF4Esh were transferred i.p. to CD45.1 mice. One day following adoptive transfer, mice were placed on doxycycline diet (200 mg/kg) and remained on this diet for the entire study. […]

## GCGTCAAGCAATCGAGATTTG (SEQ ID NO: 6) (expressed or natural sequence) [eIF4E shRNA, doxycycline-inducible eIF4E shRNA expressed from pTRIPZ lentivirus in OT2 T cells]
Dox-inducible shRNA, seven days following Dox addition, vs NS shRNA
  eIF4E silencing in spleen and blood transduced OT2 T cells (lower eIF4E level): 3 fold
Day 15 post-transfer, OVA/Alum, vs control NS OT2 cells
  fewer TFH cells formed by OT2 T cells: 3 fold
Day 15 post-transfer, vs NS OT2 cells
  level of OT2 T cells in the spleen: no impact
